Data: patent US20060116407A1, “Amide derivatives” (priority 2004, published 2006)

What was measured:
[1] = test system: HEK293 cells; test: Viability assay of HEK293 cells (CellTiter-Glo); format: cell-based; details: Homo sapiens, 168 h, 7 days, 3 μM to 0.00015 μM, luminescence
Procedure: Viability Assay of HEK293 Cells
A viability assay was performed using the CellTiter-Glo™ Luminescent Cell Viability Assay (see Promega Corporation's Technical Publication No. 288, pp. 1-11 [revised 2.04] which is hereby incorporated by reference in its entirety). This assay is a homogeneous method of determining the number of viable cells in culture based on quantitation of the ATP present, which signals the presence of metabolically active cells. The assay is designed for use with multiwell formats, making it ideal for automated high-throughput screening (HTS), cell proliferation and cytotoxicity assays. The homogeneous assay procedure involves adding a single reagent (containing luciferase, luciferan substrate, and buffer) directly to cells cultured in serum-supplemented medium. Cell washing, removal of medium and multiple pipetting steps are not required. The system detects as few as 15 cells/well in a 384-well format in 10 minutes after adding reagent and mixing.
The homogeneous “add-mix-measure” format results in cell lysis and generation of a luminescent signal proportional to the amount of ATP present. The amount of ATP is directly proportional to the number of cells present in culture. The above-referenced assay generates a “glow-type” luminescent signal, produced by the luciferase reaction, which has a half-life generally greater than five hours, depending on cell type and medium used. The extended half-life eliminates the need to use reagent injectors and provides flexibility for continuous or batch mode processing of multiple plates. The unique homogeneous format avoids errors that may be introduced by other ATP measurement methods that require multiple steps.
HEK293 cells (human embryonic kidney cell line transformed by Adenovirus 5 fragments, ATCC-No. CRL 1573) were cultivated in Dulbecco's Modified Eagle Medium (DMEM) (1×) liquid (high glucose) (which includes L-Alanyl-L-Glutamine [a stabilized a form of L-Glutamine], 4500 mg/L glucose, and 110 mg/L sodium pyruvate) from Invitrogen Corporation (Invitrogen Catalog Number 31966-021 [now 10569-010] which is hereby incorporated by reference in its entirety), 5% Fetal Calf Serum (FCS, Sigma Cat-No. F4135 (FBS) which is hereby incorporated by reference in its entirety), and 100 Units/ml penicillin/100 μg/ml streptomycin(=Pen/Strep from Invitrogen Cat. No. 15140 which is hereby incorporated by reference in its entirety). For the assay the cells were seeded in 384 well plates, 5000 cells per well, in the same medium. The next day the test compounds were added in various concentrations ranging from 3 μM to 0.00015 μM (10 concentrations, 1:3 diluted). After 7 days the above viability assay was performed in accordance with the following steps: • Step 1: The cell-plate was equilibrated to room temperature for approximately 30 minutes and than the assay reagent was added. • Step 2: The contents were carefully mixed for 15 minutes to induce cell lysis. • Step 3: After 45 minutes the luminescent signal was measured in Victor 2, (scanning multiwell spectrophotometer, Wallac). Details: 1st Day: • Medium: Dulbecco's Modified Eagle Medium (DMEM) (1×) liquid (high glucose) (which includes L-Alanyl-L-Glutamine [a stabilized a form/source of L-Glutamine], 4500 mg/L glucose, and 110 mg/L sodium pyruvate) from Invitrogen Corporation (Invitrogen Catalog Number 31966-021 [now 10569-010]), 5% Fetal Calf Serum (FCS, Sigma Cat-No. F4135 (FBS)), and Pen/Strep (Invitrogen Cat. No. 15140). • HEK293 (ATCC-No. CRL 1573): 5000 cells in 60 μl per well of 384 well plate. (Greiner 781098, white plates) • Incubate 24 h at 37° C., 5% CO2 2nd Day: Induction (Substance Testing):
In general the dilution steeps are 1:3 a) Add 8 μl of 10 mM stock solution of compound to 72 μl DMSO b) dilute 9×1:3 (always 30 μl to 60 μl DMSO) in this DMSO dilution row (results in 10 wells with concentrations from 1000 μM to 0.06 μM) c) dilute each concentration 1: 4.8 (10 μl compound dilution to 38 μl medium) […]

[2] = molecular target: T1, HER-2 (Homo sapiens, UniProt P04626); test: Inhibition of HER-2 phosphorylation in Calu-3 tumor cell line; format: cell-based; details: Calu-3 cells, compound 1 μM, 16 h, pY 1248 in HER-2, percentage of DMSO control; read-out: Percent inhibition of HER2-phosphorylation (compound concentration 1 μM)
T1 construct: endogenous in cells; host or cells: Calu-3 (ATCC HTB-55)
Procedure: Inhibition of HER-2 Phosphorylation in Calu-3 Tumor Cell Line
2×10^5 Calu-3 (ATTC HTB-55) cells per well were plated in a 12-well plate. After 4 days cells were starved for 16 h in Dulbecco's Modified Eagle Medium (DMEM)/0.5% Fetal Calf Serum (FCS)/1% Glutamine. During this 16 h period cells were incubated with a solution of the test compound in dimethylsulfoxide(DMSO), so that the final concentration of the compound is 1 μM and the final volume of DMSO is 0.5%. Afterwards cells were lysed in lyses buffer containing 1% Triton®X-100, 10% Glycerol, 1 mM Ethylene glycol-bis(2-aminoethylether)-N,N,N′,N′-tetraacetic acid (EGTA), 1.5 mM MgCl2, 150 mM NaCl, 50 mM 4-(2-hydroxyethyl)-1-piperazineethanesulfonic acid (HEPES) buffer pH 7.5, 1 mM Phenylmethylsulfonyl fluoride (PMSF), 10 ∥g/mL Aprotinin and […] Orthovanadate. Cell lysates were analyzed on a Sodium Dodecyl Sulfate Polyacrylamide Gel Electrophoresis (SDS PAGE) and after transfer to a nitrocellulose membrane detected with an antibody specifically recognizing the pY 1248 in HER-2. Inhibition of HER-2 phosphorylation is calculated as percentage of the control, which is treated with DMSO only.

T1 sequence (P04626 23-1255): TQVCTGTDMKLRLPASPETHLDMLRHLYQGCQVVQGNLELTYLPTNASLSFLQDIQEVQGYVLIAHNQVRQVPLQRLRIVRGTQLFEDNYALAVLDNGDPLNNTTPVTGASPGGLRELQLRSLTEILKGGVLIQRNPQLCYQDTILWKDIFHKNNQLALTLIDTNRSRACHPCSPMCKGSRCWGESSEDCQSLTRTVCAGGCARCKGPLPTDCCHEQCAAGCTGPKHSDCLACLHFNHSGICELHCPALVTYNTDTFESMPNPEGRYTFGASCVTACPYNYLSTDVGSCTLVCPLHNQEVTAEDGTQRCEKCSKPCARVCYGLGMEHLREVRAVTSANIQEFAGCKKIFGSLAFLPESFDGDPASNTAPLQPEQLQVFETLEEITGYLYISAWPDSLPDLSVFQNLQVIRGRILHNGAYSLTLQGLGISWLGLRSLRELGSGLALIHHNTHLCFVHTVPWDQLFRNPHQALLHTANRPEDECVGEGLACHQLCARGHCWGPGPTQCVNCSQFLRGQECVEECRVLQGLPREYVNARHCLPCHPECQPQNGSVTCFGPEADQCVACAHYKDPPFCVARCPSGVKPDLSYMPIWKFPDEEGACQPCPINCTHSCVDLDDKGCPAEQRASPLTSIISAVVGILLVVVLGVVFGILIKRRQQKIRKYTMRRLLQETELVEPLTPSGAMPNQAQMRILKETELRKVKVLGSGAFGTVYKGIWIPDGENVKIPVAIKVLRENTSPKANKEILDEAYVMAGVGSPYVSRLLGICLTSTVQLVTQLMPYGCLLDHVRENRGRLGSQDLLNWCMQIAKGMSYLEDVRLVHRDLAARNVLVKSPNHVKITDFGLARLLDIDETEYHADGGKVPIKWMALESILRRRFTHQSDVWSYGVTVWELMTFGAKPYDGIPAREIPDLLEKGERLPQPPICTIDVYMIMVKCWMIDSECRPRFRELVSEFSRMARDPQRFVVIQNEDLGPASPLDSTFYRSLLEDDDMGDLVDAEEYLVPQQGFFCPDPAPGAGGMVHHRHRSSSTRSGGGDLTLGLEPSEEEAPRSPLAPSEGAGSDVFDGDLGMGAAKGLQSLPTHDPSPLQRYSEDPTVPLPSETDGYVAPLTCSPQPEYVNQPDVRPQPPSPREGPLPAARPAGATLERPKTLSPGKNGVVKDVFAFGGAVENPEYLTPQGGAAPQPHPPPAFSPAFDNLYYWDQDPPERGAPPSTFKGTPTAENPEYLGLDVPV

SMILES	IC50 [1] [nM]	inhibition at 1 µM [2] [%]
O=C(Nc1ccc(C(F)(F)F)cc1)c1csc(COc2ccc(CCCCn3ccnn3)cc2)n1 [Example 41, 2-[4-(4-[1,2,3]Triazol-1-yl-butyl)-phenoxymethyl]-thiazole-4-carboxylic acid (4-trifluoromethyl-phenyl)-amide]	5 to 500	> 80
O=C(Nc1ccc(OC(F)(F)F)cc1)c1csc(COc2ccc(CCCCn3ccnn3)cc2)n1 [Example 43, 2-[4-(4-[1,2,3]Triazol-1-yl-butyl)-phenoxymethyl]-thiazole-4-carboxylic acid (4-trifluoromethoxy-phenyl)-amide]	500 to 3000	> 80
O=C(Nc1nc(COc2ccc(CCCCn3ccnn3)cc2)cs1)c1ccc(Cl)cc1 [Example 52-5, 4-Chloro-N-{4-[4-(4-[1,2,3]triazol-1-yl-butyl)-phenoxymethyl]-thiazol-2-yl}-benzamide]	5 to 500	70 to 80
CC(C)(C)c1ccc(C(=O)Nc2nc(COc3ccc(CCCCn4ccnn4)cc3)cs2)cc1 [Example 52-21, 4-tert-Butyl-N-{4-[4-(4-[1,2,3]triazol-1-yl-butyl)-phenoxymethyl]-thiazol-2-yl}-benzamide]	5 to 500	> 80
